This is an account of results in patent publication US9611252B2 (LifeSci Pharmaceuticals, Inc., priority 2013, dated 2017).

The target of the test is human Plasma Kallikrein (Homo sapiens (Human), UniProt P03952). Kind of test: In vitro enzyme inhibition of human plasma kallikrein (PFR-AMC cleavage). The test is classed as biochemical. The settings on record: human plasma kallikrein, Pro-Phe-Arg-AMC substrate, 37° C.; read-out: hPK IC50. The protocol:
The ability of the compounds disclosed herein to inhibit human plasma kallikrein activity was quantified according to the procedures below.
A 10 mM solution of the test compound was made in DMSO. […] A control tube containing only DMSO is included. 16 μL of each compound test solution was combined with 384 μL of assay buffer (50 mM Tris-HCl pH 7.5, 150 mM NaCl, 0.01% Triton X-100) to yield a “4× test compound buffer stock”.
These solutions are hereby referred to as 4×hPK and 2×PFR-AMC, respectively.
50 μL was removed from this mixture and placed into duplicate wells on a Microfluor 1Black U-bottom microtiter plate (Thermo Scientific). This plate was incubated for 5 minutes at 37° C. To each well, 50 μL of pre-warmed 2×PFR-AMC was added to start the enzymatic reaction. Cleavage of PFR-AMC was monitored in a Biotek Synergy H4 reader set at 37° C. Readings are taken every 43 seconds for 1 hour. […] The IC50 is calculated using the Gen5 (Biotek Instruments).
The ability of the compounds in Table 3 to inhibit human plasma kallikrein activity was determined.

Bounds are passed on as bounds.

Chain of human Plasma Kallikrein (P03952 20-638): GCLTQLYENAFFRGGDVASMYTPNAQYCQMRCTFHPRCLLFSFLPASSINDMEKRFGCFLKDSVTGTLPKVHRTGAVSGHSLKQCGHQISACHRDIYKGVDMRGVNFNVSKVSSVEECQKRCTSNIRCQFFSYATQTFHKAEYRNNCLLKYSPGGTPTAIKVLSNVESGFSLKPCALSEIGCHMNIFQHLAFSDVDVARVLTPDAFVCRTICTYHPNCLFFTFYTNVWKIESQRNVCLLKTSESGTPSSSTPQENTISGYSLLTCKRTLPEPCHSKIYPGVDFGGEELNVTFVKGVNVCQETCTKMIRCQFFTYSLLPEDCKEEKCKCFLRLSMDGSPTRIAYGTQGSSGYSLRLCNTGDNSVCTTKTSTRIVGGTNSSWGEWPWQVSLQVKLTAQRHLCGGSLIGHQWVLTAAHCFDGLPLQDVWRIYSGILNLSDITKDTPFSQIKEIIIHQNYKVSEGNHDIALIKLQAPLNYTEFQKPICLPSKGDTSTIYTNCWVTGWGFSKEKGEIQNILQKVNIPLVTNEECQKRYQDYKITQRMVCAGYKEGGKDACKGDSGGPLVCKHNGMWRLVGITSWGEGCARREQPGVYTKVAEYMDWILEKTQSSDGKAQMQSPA

One may read the IC50 as the point on the concentration scale where inhibition reaches its midpoint. As to `Cc1cc(N)nc(C)c1CNC(=O)c1ccnc(Cc2ccc3ncc(Cl)cc3c2F)c1` [Example 102, N-((6-amino-2,4-dimethylpyridin-3-yl)methyl)-2-((3-chloro-5-fluoroquinolin-6-yl)methyl)isonicotinamide], the IC50 was < 100 nM.

Regarding `Cc1nc(N)ccc1CNC(=O)c1ccnc(Cc2ccc3ncc(Cl)cc3c2F)c1` [Example 103, N-((6-amino-2-methylpyridin-3-yl)methyl)-2-((3-chloro-5-fluoroquinolin-6-yl)methyl)isonicotinamide], the IC50 is < 100 nM.

Take `Cc1cc(C(=O)NCc2c(C)cc(N)nc2C)cc(Cc2ccc3ncc(Cl)cc3c2)n1` [Example 104, N-((6-amino-2,4-dimethylpyridin-3-yl)methyl)-2-((3-chloroquinolin-6-yl)methyl)-6-methylisonicotinamide]: the IC50 was < 100 nM.

For the compound `Cc1cc(N)nc(C)c1CNC(=O)c1ccnc(Cn2ncc3cc(Cl)ccc32)c1` [Example 105, N-((6-amino-2,4-dimethylpyridin-3-yl)methyl)-2-((5-chloro-1H-indazol-1-yl)methyl)isonicotinamide], the IC50 is < 100 nM.

Consider `Cc1cc(N)nc(C)c1CNC(=O)c1ccnc(Cn2cc3cc(Cl)ccc3n2)c1` [Example 106, N-((6-amino-2,4-dimethylpyridin-3-yl)methyl)-2-((5-chloro-2H-indazol-2-yl)methyl)isonicotinamide], for which the IC50 was < 100 nM.

For the compound `Cc1ccc2nn(Cc3cc(C(=O)NCc4c(C)cc(N)nc4C)ccn3)cc2c1` [Example 107, N-((6-amino-2,4-dimethylpyridin-3-yl)methyl)-2-((5-methyl-2H-indazol-2-yl)methyl)isonicotinamide], the IC50 fell in the range of 100 to 1000 nM.

For `Cc1ccc2c(cnn2Cc2cc(C(=O)NCc3c(C)cc(N)nc3C)ccn2)c1` [Example 108], the IC50 was < 100 nM.

On to `Cc1ccc2nc(S(C)(=O)=O)c(Cc3cc(C(=O)NCc4cc5c(Cl)c[nH]c5cc4F)ccn3)cc2c1` [Example 109, N-((3-chloro-6-fluoro-1H-indol-5-yl)methyl)-2-((6-methyl-2-(methylsulfonyl)quinolin-3-yl)methyl)isonicotinamide], for which the IC50 was in the range of 100 to 1000 nM.

Turning to `Cc1ccc2cc(Cc3cc(C(=O)NCc4ccc(N)nc4C)ccn3)ccc2n1` [Example 112, N-((6-amino-2-methylpyridin-3-yl)methyl)-2-((2-methylquinolin-6-yl)methyl)isonicotinamide], the half-maximal inhibitory concentration (IC50) was < 100 nM.

Consider `Cc1cc(N)nc(C)c1CNC(=O)c1ccnc(Cc2cnc3ccc(F)cc3c2)c1` [Example 119, N-((6-amino-2,4-dimethylpyridin-3-yl)methyl)-2-((6-fluoroquinolin-3-yl)methyl)isonicotinamide], for which the IC50 is < 100 nM.

Regarding `O=C(NCc1cc2c(Cl)c[nH]c2cc1F)c1ccnc(Cc2cnc3ccc(F)cc3c2)c1` [Example 120, N-((3-chloro-6-fluoro-1H-indol-5-yl)methyl)-2-((6-fluoroquinolin-3-yl)methyl)isonicotinamide], the IC50 is < 100 nM.

`Cc1nc(N)ccc1CNC(=O)c1ccnc(Cc2cnc3ccc(F)cc3c2)c1` [Example 121, N-((6-amino-2-methylpyridin-3-yl)methyl)-2-((6-fluoroquinolin-3-yl)methyl)isonicotinamide]: the IC50 was < 100 nM.

Regarding `Cc1cc(N)nc(C)c1CNC(=O)c1ccnc(Cc2cnc3cc(F)ccc3c2)c1` [Example 122, N-((6-amino-2,4-dimethylpyridin-3-yl)methyl)-2-((7-fluoroquinolin-3-yl)methyl)isonicotinamide], the IC50 was < 100 nM.

As for `O=C(NCc1cc2c(Cl)c[nH]c2cc1F)c1ccnc(Cc2cnc3cc(F)ccc3c2)c1` [Example 123, N-((3-chloro-6-fluoro-1H-indol-5-yl)methyl)-2-((7-fluoroquinolin-3-yl)methyl)isonicotinamide], the IC50 is < 100 nM.

In the case of `Nc1nccc2cc(CNC(=O)c3ccnc(Cc4cnc5cc(F)ccc5c4)c3)ccc12` [Example 124, N-((1-aminoisoquinolin-6-yl)methyl)-2-((7-fluoroquinolin-3-yl)methyl)isonicotinamide], the IC50 is < 100 nM.

As for `O=C(NCc1cc2c(Cl)c[nH]c2cc1F)c1ccnc(Cc2cnc3ccccc3c2)c1` [Example 125, N-((3-chloro-6-fluoro-1H-indol-5-yl)methyl)-2-(quinolin-3-ylmethyl)isonicotinamide], the IC50 is < 100 nM.

Regarding `O=C(NCc1cc2c(Cl)c[nH]c2cc1F)c1ccnc(Cc2cnc3ccc(Cl)cc3c2)c1` [Example 126, N-((3-chloro-6-fluoro-1H-indol-5-yl)methyl)-2-((6-chloroquinolin-3-yl)methyl)isonicotinamide], the IC50 was < 100 nM.

In the case of `Cc1ccc2ccc(Cc3cc(C(=O)NCc4ccc5c(N)nccc5c4)ccn3)cc2n1` [Example 127, N-((1-aminoisoquinolin-6-yl)methyl)-2-((2-methylquinolin-7-yl)methyl)isonicotinamide], the IC50 was < 100 nM.

As to `Cc1ccc2ccc(Cc3cc(C(=O)NCc4cc5c(Cl)c[nH]c5cc4F)ccn3)cc2n1` [Example 128, N-((3-chloro-6-fluoro-1H-indol-5-yl)methyl)-2-((2-methylquinolin-7-yl)methyl)isonicotinamide], the half-maximal inhibitory concentration (IC50) was < 100 nM.

Consider `Cc1ccc2ccc(Cc3cc(C(=O)NCc4c(C)cc(N)nc4C)ccn3)cc2n1` [Example 129, N-((6-amino-2,4-dimethylpyridin-3-yl)methyl)-2-((2-methylquinolin-7-yl)methyl)isonicotinamide], for which the IC50 was in the range of 100 to 1000 nM.

For `Cc1cc(N)nc(C)c1CNC(=O)c1ccnc(Cc2ccc3nc(C#N)ccc3c2)c1` [Example 131, N-(6-amino-2,4-dimethyl-pyridin-3-ylmethyl)-2-(2-cyano-quinolin-6-ylmethyl)-isonicotinamide], the IC50 was < 100 nM.

For `Cc1cc2cc(Cc3cc(C(=O)NCc4cc5c(Cl)c[nH]c5cc4F)ccn3)ccc2cn1` [Example 133, N-((3-chloro-6-fluoro-1H-indol-5-yl)methyl)-2-((3-methylisoquinolin-6-yl)methyl)isonicotinamide], the IC50 was < 100 nM.

In the case of `CS(=O)(=O)c1ccc2cc(Cc3cc(C(=O)NCc4ccc5c(N)nccc5c4)ccn3)ccc2n1` [Example 134, N-((1-aminoisoquinolin-6-yl)methyl)-2-((2-(methylsulfonyl)quinolin-6-yl)methyl)isonicotinamide], the IC50 was 100 to 1000 nM.

Consider `CS(=O)(=O)c1ccc2cc(Cc3cc(C(=O)NCc4cc5c(Cl)c[nH]c5cc4F)ccn3)ccc2n1` [Example 135, N-((3-chloro-6-fluoro-1H-indol-5-yl)methyl)-2-((2-(methylsulfonyl)quinolin-6-yl)methyl)isonicotinamide], for which the IC50 lay within 100 to 1000 nM.

Turning to `N#Cc1ccnc2ccc(Cc3cc(C(=O)NCc4ccc5c(N)nccc5c4)ccn3)cc12` [Example 136, N-((1-aminoisoquinolin-6-yl)methyl)-2-((4-cyanoquinolin-6-yl)methyl)isonicotinamide], the IC50 is < 100 nM.

In the case of `N#Cc1ccnc2ccc(Cc3cc(C(=O)NCc4cc5c(Cl)c[nH]c5cc4F)ccn3)cc12` [Example 137, N-((3-chloro-6-fluoro-1H-indol-5-yl)methyl)-2-((4-cyanoquinolin-6-yl)methyl)isonicotinamide], the IC50 was in the range of 100 to 1000 nM.
